pKi: −log10 of the molar value.

A word on the pKi: it is the Ki on a negative log10 scale, so that one unit is a factor of ten. A lower pKi goes with a high Ki.

Assay [1] deals with E. coli RYC1000 harboring plasmid pBGAmpC-MHN (AmpC β-lactamase of Enterobacter cloacae). Briefly: microbe, parasite or virus in culture. In kind it is cell-based, Escherichia coli. As to conditions: Enterobacter cloacae; Table 3A; AmpC-MHN; CAZ alone; read-out: MIC of ceftazidime (CAZ). The method, then:
(§1) After incubation, the growth of the cells was visually inspected. The minimum inhibitory concentration (MIC) is the lowest concentration where there no cell growth was observed.
(§2) The following strains were used: Enterobacter cloacae cell line with derepressed β-lactamase production (Ent-Der), and Escherichia coli RYC1000 (araD139 D lacU169 rpsL D rib7 thiA gyrA recA56) cell lines, harboring the plasmid pBGS19 (with no β-lactamase), or the β-lactamase containing plasmids pBGAmpC (AmpC β-lactamase from E. coli; Eco-AmpC), or pBGAmpC-MHN (AmpC β-lactamase from Enterobacter cloacae; Eco-AmpCEnt). […] TEM-10 and TEM-24 differ from TEM-1 due to the following point substitutions: TEM-10 (R164S, E240K); TEM-24 (L102K, L162S, S235T, A237K). TEM-10 and TEM-24 also differ from TEM-1 in being extended spectrum enzymes (i.e., they react with a greater range of substrates than TEM-1). Also tested were clinical isolates of Pseudomonas aeruginosa. All bacterial strains and plasmids are available from Jesus Blazquez and Fernando Baquero, Servicio de Microbiologia, Hospital Ramon y Cajal, National Institute of Health, Madrid, Spain.
(§3) Several ratios, including 1:1, 2:1, 4:1, and 1:3, of β-lactam antibiotic (amoxicillin (AX) or ceftazidime (CAZ)) to boronic acid compound were used in the assays. Tazobactam (TAZO), a clinically used β-lactamase inibitor, was used as a positive control.

Assay [2] concerns E. coli RYC1000 harboring plasmid pBGS19 (no β-lactamase). Briefly: microbe, parasite or virus in culture. The format is cell-based, Escherichia coli. Conditions: Escherichia coli; Table 3A; pBGS19; CAZ alone; read-out: MIC of ceftazidime (CAZ). As for the experimental part:
as §1, §2, §3

Assay [3] deals with E. coli RYC1000 harboring plasmid pBGTEM-24 (TEM-24 β-lactamase). Briefly: microbe, parasite or virus in culture. As to conditions: Escherichia coli, Table 3A, CAZ alone, read-out: MIC of ceftazidime (CAZ). In kind it is cell-based, Escherichia coli. The method, then:
as §1, §2, §3

Assay [4] concerns β-lactamase derepressed strain of Enterobacter cloacae (Ent-Der). Briefly: microbe, parasite or virus in culture. As to conditions: Enterobacter cloacae; Table 3A; Ent. Der.; CAZ alone; read-out: MIC of ceftazidime (CAZ). In kind it is cell-based. The method, then:
as §1, §2, §3

Assay [5] concerns Citrobacter freundii derrepressed (clinical isolate). Briefly: Antibacterial activity, wider range of bacteria. The format is cell-based. Conditions: Table 6. The method, then:
(§4) Bacterial cell culture testing was performed and interpreted following the guidelines of the National Committee for Clinical Laboratory Standards (National Committee for Clinical Laboratory Standards. Methods for Dilution Antimicrobial Susceptibility Tests for Bacteria that Grow Aerobically. Approved Standard M7-A3. National Committee for Clinical Laboratory Standards, Villanova, Pa. 1993). After incubation, the growth of the cells was visually inspected. The minimum inhibitory concentration (MIC) is the lowest concentration where there no cell growth was observed.
(§5) All bacterial strains and plasmids are available from Jesus Blazquez and Fernando Baquero, Servicio de Microbiologia, Hospital Ramon y Cajal National Institute of Health, Madrid, Spain.

In assay [6] the test system is E. coli derrepr. (clinical isolate). Briefly: Antibacterial activity, wider range of bacteria. The format is cell-based. As to conditions: Table 6. As for the experimental part: as §4, §5
In assay [7] the test system is Enterobacter cloacae derrepressed (clinical isolate). Briefly: Antibacterial activity, wider range of bacteria. The format is cell-based. Conditions: Table 6. As for the experimental part:
as §4, §5

Assay [8] deals with MC4100/AmpC-E. coli (OmpC-). Briefly: Antibacterial activity, wider range of bacteria. The format is cell-based. Conditions: Table 6. As for the experimental part:
as §4, §5

The subject of assay [9] is MC4100/AmpC-E. coli (OmpF-). Briefly: Antibacterial activity, wider range of bacteria. In kind it is cell-based. Conditions: Table 6. As for the experimental part: as §4, §5
For assay [10], the system named is MC4100/AmpC-E. coli (OmpR-). Briefly: Antibacterial activity, wider range of bacteria. The format is cell-based. As to conditions: Table 6. As for the experimental part:
as §4, §5

The test system of another assay is MC4100/AmpC-E. coli. Briefly: Antibacterial activity, wider range of bacteria. In kind it is cell-based. As to conditions: Table 6. The method, then: as §4, §5
Assay [11] deals with Pseudomonas aeruginosa-1 (clinical isolate). Briefly: Antibacterial activity, wider range of bacteria. In kind it is cell-based. Conditions: Table 6. The method, then:
as §4, §5

A further assay relates to MC4 100/AmpC-Enter. Briefly: Antibacterial activity, wider range of bacteria. As to conditions: Table 6. In kind it is cell-based, E. coli. The method, then: as §4, §5
The test system of assay [12] is MC4100/AmpC-Enter (OmpC-). Briefly: Antibacterial activity, wider range of bacteria. The format is cell-based, E. coli. As to conditions: Table 6. As for the experimental part: as §4, §5
For assay [13], the system named is MC4100/AmpC-Enter (OmpF-). Briefly: Antibacterial activity, wider range of bacteria. In kind it is cell-based, E. coli. Conditions: Table 6. As for the experimental part:
as §4, §5

The subject of assay [14] is MC4100/AmpC-Enter (OmpR-). Briefly: Antibacterial activity, wider range of bacteria. In kind it is cell-based, E. coli. Conditions: Table 6. As for the experimental part:
as §4, §5

The test system of assay [15] is Ps. aeruginosa-2 (clinical isolate). Briefly: Antibacterial activity, wider range of bacteria. The format is cell-based, Pseudomonas aeruginosa. As to conditions: Table 6. The method, then:
as §4, §5

The subject of assay [16] is Ps. aeruginosa-3 (clinical isolate). Briefly: Antibacterial activity, wider range of bacteria. As to conditions: Table 6. In kind it is cell-based, Pseudomonas aeruginosa. The method, then: as §4, §5
Assay [17] addresses AmpC β-lactamase from E. coli (Escherichia coli, UniProt P00811). Briefly: biochemical. Conditions: Ki E. coli AmpC. In kind it is biochemical.
Assay [18] concerns the target T1, TEM-1 β-lactamase from E. coli (Escherichia coli, UniProt P62593).
T1 construct: gift: Natalie Strynadka, University of Alberta
Briefly: Inhibition of TEM-1 β-lactamase, spectrophotometric assay (FAP substrate). In kind it is biochemical.

In assay [19] the target is Enterobacter cloacae P99 β-lactamase (Enterobacter cloacae, UniProt P05364). Conditions: Dryjanski and Pratt, Biochemistry 34, 3561-3568 (1995); cited from earlier work.
Sequence of Enterobacter cloacae P99 β-lactamase (P05364 21-381): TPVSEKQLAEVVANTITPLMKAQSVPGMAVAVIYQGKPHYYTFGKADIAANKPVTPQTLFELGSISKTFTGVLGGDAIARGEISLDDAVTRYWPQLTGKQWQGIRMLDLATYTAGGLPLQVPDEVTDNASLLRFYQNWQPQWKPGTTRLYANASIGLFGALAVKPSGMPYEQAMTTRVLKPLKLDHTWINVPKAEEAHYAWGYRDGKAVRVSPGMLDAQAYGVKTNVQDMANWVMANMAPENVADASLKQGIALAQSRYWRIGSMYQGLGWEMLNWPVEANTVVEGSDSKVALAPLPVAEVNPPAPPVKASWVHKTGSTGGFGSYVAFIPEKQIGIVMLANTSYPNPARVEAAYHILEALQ

T1 sequence (P62593 24-286 limits assumed): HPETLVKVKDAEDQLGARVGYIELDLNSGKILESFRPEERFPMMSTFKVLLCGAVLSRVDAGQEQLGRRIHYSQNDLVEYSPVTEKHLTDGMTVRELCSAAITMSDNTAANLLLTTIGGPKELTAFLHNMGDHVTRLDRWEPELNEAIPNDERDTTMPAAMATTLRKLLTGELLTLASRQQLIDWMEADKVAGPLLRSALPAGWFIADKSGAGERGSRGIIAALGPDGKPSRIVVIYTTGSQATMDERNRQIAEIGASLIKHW
Sequence of AmpC β-lactamase from E. coli (P00811 20-377): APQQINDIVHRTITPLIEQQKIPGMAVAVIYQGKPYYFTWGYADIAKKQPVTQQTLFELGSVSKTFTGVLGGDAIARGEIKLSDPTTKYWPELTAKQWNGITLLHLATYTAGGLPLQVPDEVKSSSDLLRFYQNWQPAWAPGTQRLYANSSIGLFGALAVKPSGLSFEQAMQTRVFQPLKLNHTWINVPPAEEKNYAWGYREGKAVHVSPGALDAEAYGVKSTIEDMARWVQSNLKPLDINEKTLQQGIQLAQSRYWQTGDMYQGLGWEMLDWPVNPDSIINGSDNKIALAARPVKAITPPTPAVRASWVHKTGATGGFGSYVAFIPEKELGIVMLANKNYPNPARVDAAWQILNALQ

With `CC(C)(O/N=C(\C(=O)N[C@@H]1C(=O)N2C(C(=O)[O-])=C(C[n+]3ccccc3)CS[C@H]12)c1csc(N)n1)C(=O)O` [CAZ, ceftazidime, reference compound], the MIC was 32 mg/L in [1], less than 0.5 mg/L in assay [2], 256 mg/L in assay [3] and 512 mg/L in [4]. The “MIC, agent alone (CAZ alone / BZB only)” value in [5] was 16; in assay [6], 16; in [7], 16; in [8], 16; in assay [9], 32; in assay [10] it was 8. The “MIC, agent alone (CAZ alone / BZB only)” value amounted to 8 in the assay with MC4100/AmpC-E. coli; 8 in assay [11]; 32 with MC4 100/AmpC-Enter; 16 in assay [12]; 32 in assay [13]; 32 in [14]. The “MIC, agent alone (CAZ alone / BZB only)” value was 32 in assay [15] and 64 in [16].
Regarding `CN(C)c1cccc2c(S(=O)(=O)Nc3cccc(B(O)O)c3)cccc12` [NSULFB, m-(dansylamidophenyl)-boronic acid, reference compound], the pKi was 5.80 in assay [17] and 4.06 in assay [18]. In addition, in [19], the “inhibitor of Enterobacter cloacae P99 β-lactamase (in words)” value is given as “submicromolar”.

The values above are taken from US6417174B1, “Inhibitors of β-lactamases and uses therefor” (Northwestern University, priority 1997, dated 2002).
